From PubChem BioAssay (NCI)
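Where inhibition never reached the appropriate level, the endpoint shown equals the highest concentration tested. Otherwise, values were interpolated linearly from a five-concentration, 48-hour dose response in 96-well plates. GI50 is the concentration that inhibits growth by half. TGI is the concentration that stops growth completely.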

Legend:
Experiment in all cases: NCI-60 cell line screen, 48 h
MDA-MB-435 = system: MDA-MB-435
NCI-H522 lung = system: NCI-H522 lung
NCI-H226 lung = system: NCI-H226 lung
IGROV1 ovarian = system: IGROV1 ovarian
U251 CNS = system: U251 CNS
RPMI-8226 leukemia = system: RPMI-8226 leukemia
NCI/ADR-RES ovarian = system: NCI/ADR-RES ovarian
BT-549 breast = system: BT-549 breast
HCC-2998 colon = system: HCC-2998 colon
SF-268 CNS = system: SF-268 CNS

| SMILES | GI50 (MDA-MB-435) [µM] | TGI (MDA-MB-435) [µM] | GI50 (NCI-H522 lung) [µM] | TGI (NCI-H522 lung) [µM] | GI50 (NCI-H226 lung) [µM] | TGI (NCI-H226 lung) [µM] | GI50 (IGROV1 ovarian) [µM] | TGI (IGROV1 ovarian) [µM] | GI50 (U251 CNS) [µM] | TGI (U251 CNS) [µM] | GI50 (RPMI-8226 leukemia) [µM] | TGI (RPMI-8226 leukemia) [µM] | GI50 (NCI/ADR-RES ovarian) [µM] | TGI (NCI/ADR-RES ovarian) [µM] | GI50 (BT-549 breast) [µM] | TGI (BT-549 breast) [µM] | GI50 (HCC-2998 colon) [µM] | TGI (HCC-2998 colon) [µM] | GI50 (SF-268 CNS) [µM] | TGI (SF-268 CNS) [µM] |
| --- | --- | --- | --- | --- | --- | --- | --- | --- | --- | --- | --- | --- | --- | --- | --- | --- | --- | --- | --- | --- |
| COc1cc(-c2cc(-c3nc4cc(Cl)c(Cl)cc4[nH]3)[nH]n2)cc(OC)c1OC | 3.78 | 14.6 | 2.02 | 5.66 | 2.29 | 8.8 | 3.86 | 18.2 | 2.96 | 11 | 1.75 | 4.39 | 3.25 | > 100 | 2.84 | 8.02 | 4.47 | 15 | 3.95 | 14.9 |
| O=C1c2ccccc2C(=O)c2c(NC(=O)C(Cl)CCl)cccc21 (centres undefined) | – | 23 | – | 7.13 | – | 48.3 | – | 20 | – | > 38.4 | – | 2.11 | – | > 77.6 | – | 31.2 | – | 32.4 | – | 25 |
| O=C(CCc1ccco1)NC1CCN(CC2(c3ccc(Cl)cc3)CCC2)CC1 | 11.8 | 24.1 | 14.6 | 30 | 20.8 | 60.2 | 19.5 | 45.8 | 13.1 | 26.4 | 13.2 | 35 | 14.6 | 36 | 15.2 | 29.6 | 6.02 | 19.7 | 15.1 | 30.7 |
| COc1ccc(N2CCN(CN3CCN(c4ccc(OC)cc4)C3)C2)cc1 | > 100 | > 100 | > 100 | > 100 | > 100 | > 100 | 17 | > 100 | > 100 | > 100 | 32.6 | > 100 | > 100 | > 100 | 79.7 | > 100 | 50.4 | > 100 | > 100 | > 100 |
| COc1cc(/C=C/C(=O)NC[C@]2(O)CCC3C4CCc5cc(O)ccc5C4CCC32C)ccc1O (some centres undefined) | 4.46 | 37.5 | 6.89 | 51.7 | 35.1 | > 100 | 10.9 | 62.7 | 8.47 | > 100 | 3.16 | 16.7 | 9.89 | 54.3 | 5.54 | 52.1 | 8.62 | 32.4 | 96.1 | > 100 |
| COc1ccc2c(c1)C(=O)c1c-2c(OCCN(C)C)nc2cc(OC)ccc12 | 1.62 | 3.72 | 0.75 | 2.66 | 1.33 | 3.32 | 1.01 | 6.03 | 1.2 | 2.93 | 1.71 | 5.09 | 0.695 | 4.2 | 4.03 | 15.2 | 1.33 | 2.85 | 1.12 | 2.84 |
| CCN1/C(=C/C=C/C=C/c2sc3ccccc3[n+]2CC)Sc2ccccc21 | 0.314 | 1.31 | 0.281 | 1.51 | 0.344 | 2.99 | 0.503 | 2.14 | 0.234 | 1.54 | 0.149 | 2.21 | 2.99 | 16.7 | 0.213 | 1.18 | 0.381 | 1.69 | 0.431 | 1.62 |
| Clc1ccccc1-c1nc(-c2ccncc2)no1 | – | > 100 | – | > 100 | – | > 100 | – | > 100 | – | > 100 | – | > 100 | – | > 100 | – | > 100 | – | 84.8 | – | > 100 |
| COc1ccc(S(=O)(=O)NC2=NCCN2C(=S)SN2CCn3c2nsc3=S)cc1OC | 19.8 | 44.1 | 13 | 38.8 | 26.5 | 81.5 | 23.2 | > 100 | 22.3 | 53.4 | 7.93 | 27.5 | 61.8 | > 100 | 30.9 | > 100 | 24.7 | 44.1 | 23.2 | 79.2 |
| O=C(Nc1ccc(Cl)cc1F)c1cc(F)ccc1O | 0.626 | 5.51 | 0.379 | 9.26 | 1.02 | 5.49 | 0.597 | 17.2 | 0.832 | > 38.8 | 0.449 | 3.99 | 1.63 | 7.1 | 0.83 | 4.02 | 2.64 | 8.1 | 0.854 | 12.1 |
| CN1C(=O)N(C)C2C1NN=c1s/c(=C\c3c[nH]c4ccccc34)c(=O)n12 (centres undefined) | 0.0162 | 0.0482 | 0.0331 | 18.9 | 0.143 | > 100 | 0.0654 | > 100 | 0.0413 | > 100 | 0.0346 | 1.55 | 0.034 | – | 0.0557 | > 100 | 0.0352 | > 100 | 0.588 | > 100 |
| CCc1nc(-n2c(CC)nc3ccccc3c2=O)nc(N)c1-c1ccc(Cl)cc1 | 7.12 | > 100 | > 100 | > 100 | > 100 | > 100 | 48.5 | > 100 | > 100 | > 100 | 1.24 | > 32 | 7.17 | > 100 | > 100 | > 100 | 2.41 | > 21 | > 40.4 | > 100 |
| OC(COc1cccc2ccccc12)CN1CCN(c2ccc(Cl)cc2)CC1 (centres undefined) | 38.8 | > 100 | 15.7 | 43.5 | 13.8 | 70.4 | 14.6 | 40 | 12.6 | 29.9 | 42.9 | > 100 | 16.4 | 61.1 | > 100 | > 100 | > 100 | > 100 | 19.1 | 45.5 |
